{"source": "paper PMC11285948", "about": "“The effects of CYP2B6 inactivators on the metabolism of ciprofol” (PLOS ONE, 2024)", "key": {"[1]": {"tested_on": "human liver microsomes (HLMs)", "test": "Ciprofol metabolism in HLM incubation system (incubation time, protein concentration, enzyme kinetics)", "type": "in vitro ADME", "settings": "for reduction of ciprofol ΔC (Enzymatic reaction kinetics): ΔC1-ΔC3 and Mean; for ciprofol concentration in incubation system (Incubation time) / ciprofol concentration in incubation system (Liver microsomal protein concentration): C1-C3 and Mean; for ciprofol concentration in incubation system (Liver microsomal protein concentration): ciprofol 40 μg·mL^-1, 60 min", "method": "The volume of the incubation system was 200 μL and included 2 μL of substrate (ciprofol), 8 μL of rat liver microsomes (RLMs) or 6 μL of human liver microsomes (HLMs), 12 μL of NADPH generation system of solution (solution A 10 μL, solution B 2 μL), and the remaining volume was PBS. The incubation was performed in a water bath at a constant temperature of 37°C, and each sample was incubated three times in parallel.\nThe incubation system was removed from the water bath, and the reaction was terminated immediately by adding 800 μL of reaction termination solution (acetonitrile solution containing 5 μg·mL^-1 D6-ciprofol at 4°C). The mixture was vortexed for 2 min and centrifuged for 15 min, after which the supernatant was transferred to an autosampler vial for HPLC-MS/MS detection.\nThe concentrations of ciprofol and liver microsomal proteins in the RLM incubation system were set at 25 μg·mL^-1 and 0.8 mg·mL^-1, respectively, whereas those in the HLM incubation system were set at 40 μg·mL^-1 and 0.6 mg·mL^-1, respectively. Samples were obtained and assayed after 0, 10, 20, 30, 40, 60, 80, 100 and 120 min of incubation, and the optimum incubation time was determined according to the decreasing trend in ciprofol concentration.\nThe ciprofol concentrations in the RLM and HLM incubation systems were set at 25 and 40 μg·mL^-1, respectively. The liver microsomal protein concentrations were 0, 0.1, 0.2, 0.4, 0.6, 0.8 and 1.0 mg·mL^-1. The optimal protein concentration in the incubation system was determined based on the reduction of ciprofol (ΔC) after 40 min of incubation in RLMs and 60 min in HLMs.\nThe liver microsomal protein concentrations in the RLM incubation system and the HLM incubation system were 0.8 mg·mL^-1 and 0.6 mg·mL^-1, and the cells were incubated for 40 min and 60 min, respectively. The ciprofol concentrations in the incubation system were set at 4, 8, 16, 32, 48 and 80 μg·mL^-1, and the kinetic parameters of ciprofol metabolism were investigated based on ΔC values at different initial ciprofol concentrations (C0).\nThe substrate elimination method was employed in this study, and GraphPad Prism 8.0.2 software was used for statistical processing, including determination of the kinetic parameters of ciprofol metabolism and the IC50 values of psoralen and clopidogrel for ciprofol metabolism. The maximum velocity (Vmax), Michaelis constant (Km) and intrinsic clearance (CLint) were calculated using the […]: V=Vmax×[S]/Km+[S] CLint=Vmax/Km"}, "[2]": {"test": "Stability of ciprofol QC samples in rat plasma", "type": "physicochemical", "set-up": "calculated concentration, mean: unit: ng/mL", "method": "5 μL of IS solution (2.5 μg·mL^-1 D6-ciprofol) was added to 100 μL of plasma and mixed. Then, 300 μL of acetonitrile was added. The mixture was vortexed for 2 min and centrifuged for 10 min, and the supernatant was transferred to an autosampler vial for HPLC-MS/MS detection.\nTo investigate the stability of ciprofol under a variety of conditions, three groups of liver microsome QC sample solutions were prepared, and one group was immediately processed and analysed as described in Section 2.4.2. Another group was stored at room temperature for 8 hours before treatment and assessment. The other group was treated and placed in the autosampler (4°C) for 24 h and subsequently analysed. In addition, simulated plasma QC samples were prepared in five groups: one group was processed and measured immediately as described in Section 2.4.3, and another group was placed in the autosampler for 24 h after treatment. The other three groups were placed at room temperature for 8 h, stored at -40°C for 30 d, frozen and thawed three times, respectively, and then processed and detected as described in Section 2.4.3. All the above samples were tested in parallel in five batches."}}, "note": "“And” between values parts separate entries of the source, which are not always exact repeats. Equal values may be shown once."}
{"smiles": "CC(C)c1cccc([C@H](C)C2CC2)c1O", "note": "[ciprofol]", "values": [{"measurement": "Km of ciprofol metabolism", "setting": "[1]; HLMs 0.6 mg·mL^-1, 60 min", "result": 40.07, "unit": "µg/mL"}, {"measurement": "Vmax of ciprofol metabolism", "setting": "[1]; HLMs 0.6 mg·mL^-1, 60 min", "result": 42.39, "unit": "ng·min^-1·mg protein^-1"}, {"measurement": "reduction of ciprofol ΔC (Enzymatic reaction kinetics)", "setting": "[1]; HLMs 0.6 mg·mL^-1, 60 min, initial ciprofol C 4 μg/mL", "result": "3.114 µg/mL and 3.093 µg/mL and 3.175 µg/mL and 3.13 µg/mL"}, {"measurement": "reduction of ciprofol ΔC (Enzymatic reaction kinetics)", "setting": "[1]; HLMs 0.6 mg·mL^-1, 60 min, initial ciprofol C 8 μg/mL", "result": "6.89 µg/mL and 6.98 µg/mL and 7.022 µg/mL and 6.96 µg/mL"}, {"measurement": "reduction of ciprofol ΔC (Enzymatic reaction kinetics)", "setting": "[1]; HLMs 0.6 mg·mL^-1, 60 min, initial ciprofol C 16 μg/mL", "result": "12.73 µg/mL and 12.88 µg/mL and 12.21 µg/mL and 12.61 µg/mL"}, {"measurement": "reduction of ciprofol ΔC (Enzymatic reaction kinetics)", "setting": "[1]; HLMs 0.6 mg·mL^-1, 60 min, initial ciprofol C 32 μg/mL", "result": "17.77 µg/mL and 19.4 µg/mL and 16.95 µg/mL and 18.04 µg/mL"}, {"measurement": "reduction of ciprofol ΔC (Enzymatic reaction kinetics)", "setting": "[1]; HLMs 0.6 mg·mL^-1, 60 min, initial ciprofol C 48 μg/mL", "result": "23.33 µg/mL and 25.1 µg/mL and 23.91 µg/mL and 24.11 µg/mL"}, {"measurement": "reduction of ciprofol ΔC (Enzymatic reaction kinetics)", "setting": "[1]; HLMs 0.6 mg·mL^-1, 60 min, initial ciprofol C 80 μg/mL", "result": "28.42 µg/mL and 27.74 µg/mL and 27.36 µg/mL and 27.84 µg/mL"}, {"measurement": "ciprofol concentration in incubation system (Incubation time)", "setting": "[1]; HLMs 0.6 mg·mL^-1, ciprofol 40 μg·mL^-1, T 0 min", "result": "37.89 µg/mL and 38.98 µg/mL and 40.56 µg/mL and 39.14 µg/mL"}, {"measurement": "ciprofol concentration in incubation system (Incubation time)", "setting": "[1]; HLMs 0.6 mg·mL^-1, ciprofol 40 μg·mL^-1, T 10 min", "result": "36.11 µg/mL and 34.79 µg/mL and 36.39 µg/mL and 35.76 µg/mL"}, {"measurement": "ciprofol concentration in incubation system (Incubation time)", "setting": "[1]; HLMs 0.6 mg·mL^-1, ciprofol 40 μg·mL^-1, T 20 min", "result": "31.73 µg/mL and 29.56 µg/mL and 32.69 µg/mL and 31.33 µg/mL"}, {"measurement": "ciprofol concentration in incubation system (Incubation time)", "setting": "[1]; HLMs 0.6 mg·mL^-1, ciprofol 40 μg·mL^-1, T 30 min", "result": "28.14 µg/mL and 24.88 µg/mL and 28.27 µg/mL and 27.10 µg/mL"}, {"measurement": "ciprofol concentration in incubation system (Incubation time)", "setting": "[1]; HLMs 0.6 mg·mL^-1, ciprofol 40 μg·mL^-1, T 40 min", "result": "26.01 µg/mL and 21.75 µg/mL and 25.61 µg/mL and 24.46 µg/mL"}, {"measurement": "ciprofol concentration in incubation system (Incubation time)", "setting": "[1]; HLMs 0.6 mg·mL^-1, ciprofol 40 μg·mL^-1, T 60 min", "result": "21.50 µg/mL and 18.33 µg/mL and 20.08 µg/mL and 19.97 µg/mL"}, {"measurement": "ciprofol concentration in incubation system (Incubation time)", "setting": "[1]; HLMs 0.6 mg·mL^-1, ciprofol 40 μg·mL^-1, T 80 min", "result": "19.59 µg/mL and 17.50 µg/mL and 18.53 µg/mL and 18.54 µg/mL"}, {"measurement": "ciprofol concentration in incubation system (Incubation time)", "setting": "[1]; HLMs 0.6 mg·mL^-1, ciprofol 40 μg·mL^-1, T 100 min", "result": "18.42 µg/mL and 15.96 µg/mL and 17.83 µg/mL and 17.40 µg/mL"}, {"measurement": "ciprofol concentration in incubation system (Incubation time)", "setting": "[1]; HLMs 0.6 mg·mL^-1, ciprofol 40 μg·mL^-1, T 120 min", "result": "17.25 µg/mL and 14.82 µg/mL and 15.95 µg/mL and 16.01 µg/mL"}, {"measurement": "ciprofol concentration in incubation system (Liver microsomal protein concentration)", "setting": "[1]; HLMs, Cprotein 0 mg/mL", "result": "39.87 µg/mL and 40.23 µg/mL and 38.51 µg/mL and 39.54 µg/mL"}, {"measurement": "ciprofol concentration in incubation system (Liver microsomal protein concentration)", "setting": "[1]; HLMs, Cprotein 0.1 mg/mL", "result": "35.11 µg/mL and 36.09 µg/mL and 35.34 µg/mL and 35.51 µg/mL"}, {"measurement": "ciprofol concentration in incubation system (Liver microsomal protein concentration)", "setting": "[1]; HLMs, Cprotein 0.2 mg/mL", "result": "30.78 µg/mL and 30.52 µg/mL and 29.4 µg/mL and 30.23 µg/mL"}, {"measurement": "ciprofol concentration in incubation system (Liver microsomal protein concentration)", "setting": "[1]; HLMs, Cprotein 0.4 mg/mL", "result": "24.5 µg/mL and 24.31 µg/mL and 22.53 µg/mL and 23.78 µg/mL"}, {"measurement": "ciprofol concentration in incubation system (Liver microsomal protein concentration)", "setting": "[1]; HLMs, Cprotein 0.6 mg/mL", "result": "20.49 µg/mL and 20.86 µg/mL and 19.64 µg/mL and 20.33 µg/mL"}, {"measurement": "ciprofol concentration in incubation system (Liver microsomal protein concentration)", "setting": "[1]; HLMs, Cprotein 0.8 mg/mL", "result": "19.89 µg/mL and 20.13 µg/mL and 19.02 µg/mL and 19.68 µg/mL"}, {"measurement": "ciprofol concentration in incubation system (Liver microsomal protein concentration)", "setting": "[1]; HLMs, Cprotein 1 mg/mL", "result": "19.11 µg/mL and 19.68 µg/mL and 20.54 µg/mL and 19.78 µg/mL"}, {"measurement": "CLint of ciprofol", "setting": "[1]; HLMs, CLint=Vmax/Km", "result": 1.06, "unit": "mL·min^-1·mg protein^-1"}, {"measurement": "calculated concentration, mean", "setting": "[2]; QC sample level H, mean of H1-H5", "result": 1597.51}, {"measurement": "ciprofol found after storage, Autosampler", "setting": "[2]; rat plasma, QC 30 ng·mL^-1, autosampler for 24 h after treatment, n = 5", "result": "32.80 ± 1.93", "unit": "ng/mL"}, {"measurement": "ciprofol found after storage, Room Temperature", "setting": "[2]; rat plasma, QC 30 ng·mL^-1, room temperature for 8 h, n = 5", "result": "30.50 ± 2.27", "unit": "ng/mL"}, {"measurement": "ciprofol found after storage, Freeze–Thaw", "setting": "[2]; rat plasma, QC 30 ng·mL^-1, three freeze–thaw cycles, n = 5", "result": "33.49 ± 2.03", "unit": "ng/mL"}, {"measurement": "ciprofol found after storage, Long-Term Storage", "setting": "[2]; rat plasma, QC 30 ng·mL^-1, −40°C for 30 days, n = 5", "result": "32.70 ± 2.85", "unit": "ng/mL"}]}
